Earlier results, collected in patent EP1156371A2, “Replenishing method of planographic printing plate developer” (FUJI PHOTO FILM CO., LTD., priority 2000, dated 2001).

Settings: dissociation constant of weak acid, aqueous solution

Row | Compound | pKa
1 | O=C(O)c1cc2ccccc2cc1O [3-hydroxy-2-naphthoic acid] | 12.84
2 | Oc1ccc(O)cc1 [hydroquinone] | 11.56
3 | CC(C)=NO [acetoxime] | 12.42
4 | Cc1cccc(O)c1 [m-cresol] | 10.09
5 | OC[C@H]1O[C@@H](n2cnc3c(O)ncnc32)[C@H](O)[C@@H]1O [inosine] | 12.5
6 | O=C1CC(=O)NC(=O)N1 [barbituric acid] | 12.5
7 | Oc1cccc(O)c1O [pyrogallol] | 11.34
8 | NC(=S)c1ccccc1 [thiobenzamide] | 12.8
9 | CC(=NO)c1ccccc1 [acetophenone oxime] | 11.35
10 | picoline thioamide | 12.55
11 | CC(C)(P(=O)(O)O)P(=O)(O)O [isopropylidene diphopshonic acid] | 12.10
12 | CCC(C)=NO [2-butanone oxime] | 12.45
13 | OCC(F)(F)C(F)F [2,2,3,3-tetrafluoropropanol-1] | 12.74
14 | O=Cc1ccncc1 [pyridine-4-aldehyde] | 12.05
15 | O=C(O)c1ccc(O)c(O)c1 [3,4-duhydroxybenzoic acid] | 11.94
16 | CC(=NO)C(C)=NO [dimethyl glyoxime] | 11.9
17 | O=C(O)c1cc(S(=O)(=O)O)ccc1O [sulfosalicylic acid] | 11.7
18 | Oc1cccc(O)c1 [resorcinol] | 11.27
19 | c1ccc2[nH]cnc2c1 [benzimidazole] | 12.86
20 | Oc1ccccc1O [catechol] | 12.6
21 | Cc1ccccc1O [o-cresol] | 10.33
22 | Nc1ncnc2c1ncn2[C@@H]1O[C@H](CO)[C@@H](O)[C@H]1O [adenosine] | 12.56
23 | ON=Cc1ccccc1O [2-hydroxybenzaldehyde oxime] | 12.10
24 | O=Cc1ccccn1 [pyridine-2-aldehyde] | 12.68
25 | CC(O)(P(=O)(O)O)P(=O)(O)O [1-hydroxy 1-ethylidene diphosphonate] | 11.52
26 | NC(=N\O)/C(N)=N/O [ethanediamide dioxime] | 11.37
27 | CC(P(=O)(O)O)P(=O)(O)O [1,1-ethylidene diphosphonic acid] | 11.54
28 | Oc1ccc(O)c(O)c1 [1,2,4-trihydroxybenzene] | 11.82
